For one assay, the system named is STAT3. As to the kind of experiment: p-STAT3 intracellular marking in BMDCs. The class given is cell-based, mice (Mus musculus). Conditions: BMDCs, 30 μM inhibitor previous to Hsp70. As to the method: As positive control, the cells were stimulated with […] of phorbol myristate acetate (PMA) for 30 minutes. After the stimuli in the periods mentioned, the cells were fixed with Cytofix Buffer (BD Biosciences) for 10 minutes at 37° C. and permeated with Phosflow Perm Buffer III (BD Biosciences) for 30 minutes on ice. After such procedures, the cells were marked for p-ERK1/2 and p-STAT3.
For analyzing the recipients T cells, the cells were marked for CD4 (GK1.5), CD8a (53-6.7), Foxp3 (MF23), Ki67 (B56) achieved from BD Biosciences. […] The levels of phosphorylated ERK and STAT3 were determined using antibodies for p-ERK1/2 and p-STAT3 (BD Biosciences) in BMDCs previously fixed and permeablized. The cells were subsequently analyzed in the flow cytometer FACSCanto II (BD Biosciences) with the BD FACSDiva (BD Biosciences) program. The data achieved were analyzed with the Flowjo program (version 7.6.5, Tree Star).
The p-ERK expression was measured by flow cytometry. […] The p-STAT3 expression was measured by flow cytometry. […] After that, the IL-10 mRNA levels were measured by Real-time PCR and the concentration of this cytokine by flow cytometry, using the kit CBA Mouse Inflammation. […] After that, the MARCH-I mRNA levels were analyzed by Real-time PCR. […]

The subject of another assay is splenocytes. Put plainly: Epitopes mapping of T cells (splenocytes re-stimulated in vitro). It is filed as cell-based, BALB/c mice. Conditions: 5 μg/ml peptide or 60 μg/ml Hsp70, 24 h; for CD4+Foxp3+ (Tregs) cells percentage (FIG. 16 A): compared with DMSO.
The test system of assay [1] is cutaneous allograft (B6 donor skin in BALB/c recipients). Put plainly: Murine model of cutaneous allograft, graft immersion-treatment. It is filed as in vivo, mice (Mus musculus). The text has this:
A method for treating grafts, including allografts, was developed by the inventors of the present invention. Thus, the method treats the grafts (that may be full organs) instead of recipient that will receive the graft, using as tool a classic murine model of skin transplantation and well established. Such method, to the light of the inventors, may be considered as new and inventive. The said model consists of a complete incompatibility of MHC molecules and was described by BILLINGHAM & MEDAWAR (1951).
BALB/c recipients, which express the MHC II I-A^d molecule, are anaesthetized and the dorsal stem hairs are removed. In the waxed area, 1 cm^2 of the skin was removed in each recipient mouse and the donor tail skin was sutured in the exposed area. The animals are maintained in individual cages and daily monitored. The graft rejection is confirmed by observing the cyanosis, erythema, erosion and cutaneous graft loss.
This model consists of a complete incompatibility of MHC molecules and was described by BILLINGHAM & MEDAWAR (1951). In this model, the donor mouse B6, which expresses the MHC II I-A^b molecule, is sacrificed. […] After this period, the grafts were sutured in the BALB/c recipients' back, who express the MHC II I-A^d molecule, and the rejection clinical progression is daily monitored.
After that, the grafts were sutured in the BALB/c (I-Ad) animals' back. The animals were daily monitored. ***, p<0.0001. n=22-24 mice per group. The results achieved putting the seven independent experiments together.
After this, these grafts were sutured in BALB/c recipients WT and their rejection were daily monitored.
After this, the grafts were sutured in the BALB/c (I-Ad) animals' back. The animals were daily monitored. *, p<0.05. n=4 mice per group.

Assay [2] shares this test system. Put plainly: Cutaneous allograft model, graft immersion followed by topic application. The class given is in vivo, mice (Mus musculus). Conditions: immersion plus 7 days of topic application (group '- 7 days'). An excerpt:
That is, animals that received grafts treated with Hsp70 receive the local application of a Hsp70 solution and the same for OVA.
After this, the grafts were sutured in BALB/c (I-A^d) animals' back. […] The animals were daily monitored. (A) Schematic representation of the treatment strategy used in the experiment. (B) Photographic record of the clinical progression of the acute rejection in groups Hsp70 and OVA. […] Data achieved from previous experiments.

For a further assay, the system named is MARCH-I. Put plainly: MARCH-I mRNA in DCs by real time PCR. It is filed as cell-based, mice (Mus musculus). The settings on record: DCs from IL-10 knockout animals, 24 h; compared with DCs WT. As to the method:
The supernatants were collected and used for analyzing cytokine. The cells were further treated with 20 ng/ml of Rapamycin (Cell Signaling), 1 μg/ml of Cyclosporine A (Roche) or 20 ng/ml of IL-10 recombinant murine (R&D System) for 24 h and the total RNA was removed.
The total RNA was isolated from the DCs treated using the kit RNAeasy (Qiagen), according to the manufacturer instructions. The total purified RNA concentration was determined with the kit Qubit® RNA Assay Kit (Invitrogen), read in the Qubit® Fluorometer (Invitrogen). 50 ng of the RNA had reverse transcriptase with 100 U of Sensiscript (Qiagen). DNA concentrations were determined with the kit Qubit® dsDNA HS Assay (Invitrogen), read in the Qubit® Fluorometer (Invitrogen). In a final volume of 10 μL, 8 ng of cDNA were applied using some assays Taqman® Gene Expression (Applied Biosystems): IL10 (Mm00439614_m1), March1 (Mm00613524_m1) and β-actin (4352933E), according to the manufacturer recommendations.
The quantitative real time PCR was performed in the instrument StepOne™ Real-Time PCR System (Applied Biosystems). The relative levels of mRNA were calculated according to the comparative method of Ct, described by […] & LIVAK (2008). The β-actin constituent gene was used as setter. Non-treated DCs served as reference for OVA or Hsp70-treated DCs.
After that, IL-10 mRNA levels were analyzed by Real-time PCR. The β-actin was used as a setter. The IL-10 concentration was measured in the cultures supernatant by flow cytometry. […] (C) As in A, however the MARCH-I mRNA levels were analyzed by Real-time PCR. […] DCs IL-10 KO were also treated with Recombinant IL-10. All treatments were performed for 24 h and MARCH-I mRNA levels were analyzed by Real-time PCR. […] After this period, grafts were sutured in the BALB/c animals' back and the acceptance was daily monitored. Graphs expressed on average ±SEM. *, p<0.05; **, p<0.01; ***, […]. n=3-5 mice per group. Representative results of 3 independent experiments.
After this period, the MARCH-I expression increase was analyzed by Real-time PCR.
A general note: Quantitative PCR measures a nucleic acid by following its amplification.

`COc1cccc(-c2cc(=O)c3ccccc3o2)c1N` [PD98059, reference compound]: the “STAT3 activation against the stimulus with Hsp70 after ERK inhibition (FIG. 13 E)” value with STAT3 is listed as “removed the STAT3 activation”.

With “KYTAPEISARILMKL (Heat Shock Protein HSP70) [Peptide 5]”, in the assay on splenocytes, the “CD4+Foxp3+ (Tregs) cells percentage (FIG. 16 A)” value was “increase in the Tregs production”.

For VGGSTRMPAVTDLVK [Peptide 2], in the assay on splenocytes, the “IL-10 production by splenocytes (FIG. 16 B)” value is “small increase” and the “CD4+Foxp3+ (Tregs) cells percentage (FIG. 16 A)” value is on record as “quite significant increase”. In addition, in assay [1] (60 μg/ml Hsp70 or 15 μg/ml peptide, 60 minutes at 4° C., compared to OVA peptide and peptide 5), the “graft acceptance after immersion with Hsp70 or peptides (FIG. 17)” value is listed as “strong tendency in lengthen the graft acceptance”.

B1: OVA: egg albumin (OVA), control protein (protein, UniProt P01012 2-386, looked up)
Ovalbumin: GSIGAASMEFCFDVFKELKVHHANENIFYCPIAIMSALAMVYLGAKDSTRTQINKVVRFDKLPGFGDSIEAQCGTSVNVHSSLRDILNQITKPNDVYSFSLASRLYAEERYPILPEYLQCVKELYRGGLEPINFQTAADQARELINSWVESQTNGIIRNVLQPSSVDSQTAMVLVNAIVFKGLWEKAFKDEDTQAMPFRVTEQESKPVQMMYQIGLFRVASMASEKMKILELPFASGTMSMLVLLPDEVSGLEQLESIINFEKLTEWTSSNVMEERKIKVYLPRMKMEEKYNLTSVLMAMGITDVFSSSANLSGISSAESLKISQAVHAAHAEINEAGREVVGSAEAGVDAASVSEEFRADHPFLFCIKHIATNAVLFFGRCVSP
In the case of B1, the Survival median in assay [2] is recorded as 14.0 days. Also, the “Survival” value in assay [2] (individual mice) is reported as 16 days. In assay [1] (graft immersed in 60 μg/mL for 60 minutes, seven independent experiments), the Survival average was 14.0 days.

B2: recombinant murine IL-10: IL-10 recombinant murine (R&D System), positive control (protein, UniProt P18893 19-178, looked up)
Interleukin-10: SRGQYSREDNNCTHFPVGQSHMLLELRTAFSQVKTFFQTKDQLDNILLTDSLMQDFKGYLGCQALSEMIQFYLVEVMPQAEKHGPEIKEHLNSLGEKLKTLRMRLRRCHRFLPCENKSKAVEQVKSDFNKLQDQGVYKAMNEFDIFINCIEAYMMIKMKS
Regarding B2, in the assay on MARCH-I, the “MARCH-I mRNA levels in DCs IL-10 KO (FIG. 11 D)” value was “reestablished partially”.

Source of the values: patent publication US20160295854A1, “COMPOSITION AND METHOD FOR EX-VIVO IMMUNOMODULATION AND/OR PRESERVATION OF ORGANS, METHODS AND USE” (UNIAO BRASILEIRA DE EDUCACAO E ASSISTENCIA , MANTENEDORA DA …, priority 2014, published 2016).
